{
  "source": "patent US20140161769A1",
  "about": "“METHODS FOR TREATING INFLAMMATORY AUTOIMMUNE DISORDERS” (Beth Israel Deaconess Medical Center, Inc., priority 2010, published 2014)",
  "key": {"MRL/lpr mice": {"test_system": "MRL/lpr mice", "experiment": "Treatment of MRL/lpr mice with KN-93 (lupus nephritis; urine and kidney histopathology)", "format": "in vivo, mouse", "protocol": "FIG. 7A is a graph showing the weekly quantification of urinary protein and leukocytes of pre-disease 8-week-old MRL/lpr mice treated with either KN-93 (40 mg/kg) or PBS. The agent was administered by intraperitoneal injections three times a week, every other week, during an 8-week time period. The arrows indicate the administration of the treatment. FIG. 7B is a graph showing the weekly quantification of urinary protein and leukocytes of diseased 12-week-old MRL/lpr mice (n≧5 mice per group) treated with KN-93 or PBS. Treatment was administered three times a week during a 5-week time period. FIG. 7C is a series of representative images of glomerular, tubule-interstitial, and perivascular areas from 16-week-old MRL/lpr mice treated with PBS (upper panels) and KN-93 (stained with Periodic Acid Schiff). The photographs from the middle panels correspond to mice treated before the onset of proteinuria (8 week-old). The lower panels correspond to mice treated after the disease had been established. The magnification is ×40 (glomerular), ×10 (tubular), and ×20 (perivascular).\nWe recorded proteinuria and pyuria in CaMKIV-deficient and sufficient MRL/lpr mice from the 6th to the 24th week of age. The mice in each group were placed overnight in a Nalgene metabolic cage to collect urine. Urine was measured with Multistix 10SG reagent strips and analyzed by a Clinitek Status analyzer (Bayer Healthcare). Proteinuria increased to 3 g/L in MRL/lpr mice at the age of 14 weeks and remained at the same level thereafter. However, in MRL/lprCaMKIV−/− mice, proteinuria remained at 1 g/L throughout the observation period. The number of leukocytes in the urine increased to 500 μl at week 14 in MRL/lpr mice, whereas it remained less than 15 μl in MRL/lprCaMKIV−/− mice (FIG. 4A).\nTo rule out such possibility, we used KN-93, a well-known CaMKIV inhibitor (Tsung et al., J Exp Med. 204: 2913-2923, 2007; Sato et al., Nat Med. 12: 1410-1416, 2006; and Ilario et al., Blood 111: 723-731, 2008), to treat MRL/lpr mice and determine its effect on the expression of lupus nephritis. The agent was administered by intraperitoneal injections at a dose of 0.08 mg/mouse, three times a week. We treated MRL/lpr mice with PBS (control) or KN-93 either every other week from week 8 to week 16 (disease prevention) (FIG. 7A) or weekly from week 12 to week 16 (disease treatment) (FIG. 7B).\nIn the disease prevention experiment, KN-93 administration was started either before the onset of proteinuria, when the mice were 8 weeks old. These mice received the agent every other week. In the disease treatment experiment, the effectiveness of KN-93 in established disease was evaluated. KN-93 administration was started when mice were 12 weeks old and continued three times a week during 5 weeks. Mice of both experiments were sacrificed at the end of their 16th week of age."}, "[1]": {"test_system": "Splenocytes isolated from MRL/lpr mice", "experiment": "CD86 expression on CD19 positive B cells of MRL/lpr splenocytes (flow cytometry)", "format": "cell-based, mouse", "conditions": "KN-93 (10 μM)", "protocol": "Splenocytes were isolated from MRL/lpr mice and stimulated with LPS (1 μg/ml) or PBS for 24 hours. FIGS. 10A and 10C are bar graphs showing the expression of CD86 in LPS-stimulated cells (FIG. 10A) and unstimulated cells (FIG. 10C). A Kruskal-Wallis test was used for statistical analyses. Results are expressed as mean+SD CP=0.01; n=three 24-week-old mice per group). FIGS. 10B and 10D are representative histograms comparing CD86 expression on LPS-stimulated (FIG. 10B) and unstimulated splenocytes (FIG. 10D). Splenocytes were treated with KN-93 (10 μM) (right panel) or PBS (left panel) for 24 hours. Shaded areas represent isotype control staining.\nWe wished to determine whether CaMKIV deficiency suppresses CD86 expression in all types of antigen presenting cells (APC). Splenocytes were isolated from MRL/lpr and MRL/lprCaMKIV−/− mice and stimulated with LPS (1 μg/ml) or PBS for 24 hours. We stained cells with fluorochrome-conjugated antibodies against the major histocompatibility complex (MHC) class II (eBioscience) (all APCs), CD19 (B cells), CD11c (dendritic cells), and F4/80 (macrophages) (BioLegend). […]\nSplenocytes isolated from MRL/lpr mice were stimulated with LPS (1 μg/ml) or PBS for 24 hours in the presence or absence of KN-93. CD19 positive B cells were analyzed for the expression of CD86. […]"}, "Normal human T cells": {"test_system": "Normal human T cells", "experiment": "IFN-γ production and CD69 expression in normal human T cells", "format": "cell-based", "protocol": "(§1) FIG. 15A is a bar graph showing IFN-γ levels in supernatants from human T cells incubated with PBS or CD3/28 and treated with either PBS (white bars) or with KN-93 (black bars). FIG. 15B are histograms comparing CD69 expression in human T cells incubated with PBS (left) or with CD3/28 (right). Data are shown for control (gray), treatment with PBS (dotted line), and treatment with KN-93 (solid line). FIG. 15C is a series of bar graphs showing […] (left), IL-6 (middle), and TNF-α(right) levels in supernatants from macrophages incubated with PBS or LPS and treated with either PBS (white bars) or with KN-93 (black bars). Normal human T cells and macrophages were treated with PBS (control) or KN-93. […] Furthermore, the activity of IL-6 in murine mesangial cells decreases in the absence of CaMKIV. Taken together, inhibition of CaMKIV by KN-93 or absence of CaMKIV (e.g., by genetic deficiency) decreases the expression of various pro-inflammatory cytokines, and inhibitors of CaMKIV could be used to treat disorders associated with one or more of such cytokines (e.g., autoimmune disorders)."}, "macrophages": {"test_system": "macrophages", "experiment": "Cytokine production in normal human macrophages", "format": "cell-based", "conditions": "supernatants from macrophages incubated with PBS or LPS, KN-93 vs PBS", "protocol": "as §1"}, "primary mesangial cells [2]": {"test_system": "primary mesangial cells", "experiment": "Mesangial cell proliferation (cell cycle analysis, flow cytometry)", "format": "cell-based, mouse", "protocol": "FIG. 16A is a series of histograms in unstimulated cells (left) and cells stimulated with PDGF (right). FIG. 16B is a series of immunoblots of protein extracts obtained from murine mesangial cells and immunoblotted with anti-CDK2 or anti-cyclin D1 antibodies. After isolation from MRL/MPJ or MRL/lpr mice, these cells were untreated, treated with KN-93, treated with PDGF, or treated with both KN-93 and PDGF. Briefly, four hundred thousand primary mesangial cells were incubated in 2 mL of RPMI 1640 with 10% FBS. Cells were plated in 6-well plates and made quiescent by serum starvation for 24 hours. Then, cells were treated with 20 ng/ml of PDGF-BB (PeproTech, Inc. Rocky Hill, N.J.) for 24 hours. In some experiments, cells were pretreated with KN-93 (20 μM) for 48 hours before the addition of PDGF-BB. For cell cycle analysis, mesangial cells were harvested with trypsin, washed twice with PBS, fixed in cold 95% ethanol, and stored at 4° C. until use. Before flow cytometric analysis, cells were washed with PBS and centrifuged, and the cell pellets were resuspended in a solution of RNAse (0.5 mg/ml) in PBS and incubate at 37° C. for 20 minutes. Then, propidium iodide (PI) (40 μg/ml) was added in PBS for 30 minutes. Stained cells were analyzed with a flow cytometer (model FACS Scan; BD Bioscience, Franklin Lakes, N.J.). […]"}, "primary mesangial cells [3]": {"test_system": "primary mesangial cells", "experiment": "Western blot of CDK2 and cyclin D1 in mesangial cells", "format": "cell-based, mouse", "conditions": "mesangial cells from MRL/MPJ or MRL/lpr mice, immunoblot", "protocol": "FIG. 16A is a series of histograms in unstimulated cells (left) and cells stimulated with PDGF (right). FIG. 16B is a series of immunoblots of protein extracts obtained from murine mesangial cells and immunoblotted with anti-CDK2 or anti-cyclin D1 antibodies. After isolation from MRL/MPJ or MRL/lpr mice, these cells were untreated, treated with KN-93, treated with PDGF, or treated with both KN-93 and PDGF. Briefly, four hundred thousand primary mesangial cells were incubated in 2 mL of RPMI 1640 with 10% FBS. Cells were plated in 6-well plates and made quiescent by serum starvation for 24 hours. Then, cells were treated with 20 ng/ml of PDGF-BB (PeproTech, Inc. Rocky Hill, N.J.) for 24 hours. In some experiments, cells were pretreated with KN-93 (20 μM) for 48 hours before the addition of PDGF-BB. For Western blot analysis, mesangial cells were homogenized in radioimmunoprecipitation assay (RIPA) buffer at 4° C. After centrifugation at 14,000 rpm for 30 min at 4° C., supernatant was collected and stored at −80° C. until use. The following antibodies were used for immunoblot assay: rabbit anti-CDK2, rabbit anti-cyclin D1 (Cell signaling) and rabbit anti-actin (Sigma)."}, "[4]": {"conditions": "kidneys of KN-93 treated MRL/lpr mice"}},
  "data": [
    {"smiles": "COc1ccc(S(=O)(=O)N(CCO)c2ccccc2CN(C)CC=Cc2ccc(Cl)cc2)cc1", "note": "[KN-93, N-[2-[[[3-(4-chlorophenyl)-2-propenyl]methylamino]methyl]phenyl]-N-(2-hydroxyethyl)-4-methoxybenzenesulphonamide]", "values": [
      {"measurement": "kidney pathology, determined histopathologically", "setting": "MRL/lpr mice; 16-week-old MRL/lpr mice, KN-93 vs PBS", "value": "less kidney pathology"},
      {"measurement": "protein in the urine (proteinuria)", "setting": "MRL/lpr mice; MRL/lpr mice, KN-93 i.p. 0.08 mg/mouse three times a week, both schemes (every other week, weeks 8-16; weekly, weeks 12-16), PBS-treated mice 3 g/L", "value": "less than 1 g/L"},
      {"measurement": "leukocytes in the urine (pyuria)", "setting": "MRL/lpr mice; MRL/lpr mice, KN-93 i.p. 0.08 mg/mouse three times a week, both schemes, PBS-treated mice 500 leukocytes/μl", "value": "< 125", "unit": "leukocytes/μl"},
      {"measurement": "glomerular crescents", "setting": "MRL/lpr mice; [4]", "value": "did not have any glomerular crescents"},
      {"measurement": "glomerular damage, interstitial, and perivascular inflammatory cell infiltration", "setting": "MRL/lpr mice; [4]", "value": "limited"},
      {"measurement": "expression of CD86 on stimulated cells", "setting": "[1]; LPS (1 μg/ml) 24 hours", "value": "suppressed"},
      {"measurement": "expression of CD86 in non-LPS stimulated cells", "setting": "[1]; PBS 24 hours", "value": "trend towards lower expression"},
      {"measurement": "expression of CD69 on T cells", "setting": "Normal human T cells; normal human T cells, KN-93 vs PBS", "value": "decreased expression"},
      {"measurement": "production of IFN-γ", "setting": "Normal human T cells; supernatants from human T cells incubated with PBS or CD3/28, KN-93 vs PBS", "value": "decreased production"},
      {"measurement": "production of IL-1β", "setting": "macrophages", "value": "decreased production"},
      {"measurement": "production of IL-6", "setting": "macrophages", "value": "decreased production"},
      {"measurement": "production of TNF-α", "setting": "macrophages", "value": "decreased production"},
      {"measurement": "mesangial cell proliferation", "setting": "primary mesangial cells [2]; with PDGF stimulation (20 ng/ml PDGF-BB 24 hours), pretreated with KN-93 (20 μM) 48 hours", "value": "suppressed"},
      {"measurement": "mesangial cell proliferation", "setting": "primary mesangial cells [2]; without PDGF stimulation, KN-93 (20 μM) 48 hours", "value": "suppressed"},
      {"measurement": "presence of CD-K2", "setting": "primary mesangial cells [3]", "value": "decreased"},
      {"measurement": "presence of cyclin D1", "setting": "primary mesangial cells [3]", "value": "decreased"}
    ]}
  ]
}
